US20140194477A1, “KINASE PROTEIN BINDING INHIBITORS” (Roswell Park Cancer Institute, priority 2011, published 2014)

Key:
CD-1 mice = assay: 28-day multiple-dose toxicologic study, IP, CD-1 mice; type: in vivo, mouse
Description: A 28-day, multiple-dose toxicologic study of the chemical 1,2,4,5-Benzenetetramine tetrahydrochloride was performed in CD-1 mice.
• 1,2,4,5-benzenetetramine tetrahydrochloride. The test article was prepared in PBS (physiologic buffered saline). The test article was prepared by the sponsor and delivered to the study director prior to the study. The test article was stored in the freezer (0° C.), protected from light.
• PBS (physiologic buffered saline), • Test System: • The CD-1 [Hsd:ICR(CD-l)] albino mouse was used. The CD-1 mouse is conventionally used in 28 day toxicity tests to provide information on which human hazards can be judged, and is one of the choices of species preferred by regulatory agencies. Mice were obtained from Harlan (Frederick, MD). • Mice were acclimated for 2 days prior to testing. 12 male and 12 female mice, nulliparous and non-pregnant, were used. Normal weight gain, appearance and behavior were factors used to select healthy mice for testing. Only naive animals were used. Mice were 7 weeks old (males) and 9 weeks old (females), weighed 21-26 grams (males) and 17-23 grams (females), and were in good health at the start of the study. Mice were 11 weeks old (males) and 13 weeks old (females), weighed 20-32 grams (males) and 19-26 grams (females) at the conclusion of the study. • Mice were randomly assigned to 4 experimental groups (high-dose, medium-dose, low-dose, and controls) consisting of 3 males and 3 females. Mice were identified via cage cards, tail markings, and ear punch. Mouse identification is summarized in Table 1. • Mice were fed autoclaved Harlan-Teklad sterilizable 7012 mouse/rat diet ad libitum. The feed is routinely analyzed by the manufacturer for nutritional components and environmental contaminants. Tap water acidified to a pH of 2.5-3.5 was provided in autoclaved water bottles ad libitum. Municipal water supply is analyzed by the Bureau Veritas Consumer Product Services of Buffalo, N.Y. on an annual basis. There are no known contaminants in the feed or water provided to the test animals that would be expected to interfere with this study. • Mice were group-housed, 3 to a cage, in autoclaved polycarbonate/polysulfone microisolator cages with autoclaved contact bedding (bed ′o cobs, Anderson's Industrial Products Group). • Environmental conditions in the animal housing room were maintained at an ambient temperature of 70±3°, relative humidity of 30-70%, and a 12:12 light-dark cycle. Animal housing rooms were ventilated with 100% fresh, HEPA filtered air with 10-15 air changes per hour.
• A 28-day multiple-dose toxicology study was performed.
The test article (1,2,4,5-benzenetetramine tetrahydrochloride) was prepared in PBS (the control article) and administered intraperiotoneally (IP) as 20 doses once daily on days 0-4, 7-11, 14-18, and 21-25 in the morning. The compound was diluted so as not to exceed a volume of 0.1 mL.
The test article (1,2,4,5-benzenetetramine tetrahydrochloride) was stored in the freezer (0° C.) and thawed to room temperature prior to injection. Mice were randomly allocated into 4 groups (control, low-dose, medium-dose, and high-dose) consisting of 3 males and 3 females, Dosages were calculated on a “per mouse” basis, not on a mg/kg basis. Mice in the low-dose group received the equivalent of a 15 mg/kg dose for a 20 g mouse (0.3 mg). Mice in the medium-dose group received the equivalent of a 30 mg/kg dose for a 20 g mouse (0.6 mg). Mice in the high-dose group received the equivalent of a 45 mg/kg dose for a 20 g mouse (0.9 mg). Mice in the control group received 0.1 mL of PBS (phosphate-buffered saline). Groups received the following doses, as outlined in table 1: […]

cancer cell = assay: Cancer cell viability in vitro; type: cell-based
[1] = IP, 28-day study, high-dose group

Cl.Cl.Cl.Cl.Nc1cc(N)c(N)cc1N [Y15, 1,2,4,5-benzenetetraamine tetrahydrochloride]
toxicity (summary statement) (CD-1 mice; 30 mg/kg by ip administration, duration 28 days): no toxicity
pain following injection (CD-1 mice; IP, 20 daily doses over 28 days, 15, 30, 45 mg/kg equivalent): pain following injection in all dose groups
clinical chemistry changes (CD-1 mice; IP, 28-day study): not associated with any changes in clinical chemistry that were statistically and clinically significant
gross and histopathologic findings (CD-1 mice; IP, 28-day study, all dose groups): gross and histopathologic peritonitis in mice in all dose groups
mean body weights (CD-1 mice; IP, 28-day study, high dose group (45 mg/kg equivalent)): statistically significant lowered mean body weights
hematologic changes (CD-1 mice; [1]): Some statistically and clinically significant hematologic changes
mortality (CD-1 mice; [1]): unexpected mortality in the high-dose group
clinical signs (CD-1 mice; IP, 28-day study, medium (30 mg/kg) and high (45 mg/kg) dose groups): clinical signs consistent with general malaise and peritonitis
weight loss (CD-1 mice; IP, 28-day study, medium- and high-dose groups): weight loss in the medium- and high-dose groups
cancer cell viability in vitro (cancer cell): inhibits cancer cell viability in vitro
